Earlier results in paper PMC3848336, “Aurora Isoform Selectivity: Design and Synthesis of Imidazo[4,5-b]pyridine Derivatives as Highly Selective Inhibitors of Aurora-A Kinase in Cells” (Journal of Medicinal Chemistry, 2013).

Tested on: Aurora-A/N-Myc complex
Set-up: method as in PMID 23792191
Conditions: cited from earlier work

SMILES | disruption of the Aurora-A/N-Myc complex
O=C(O)[C@]1(Cc2cccc(Nc3nccs3)n2)CC[C@@H](Oc2cccc(Cl)c2F)CC1 [MK-5108] | not disrupted
O=C(O)c1ccc(Nc2ncc3c(n2)-c2ccc(Cl)cc2C(c2c(F)cccc2F)=NC3)cc1 [MLN8054] | disrupt the Aurora-A/N-Myc complex
COc1cc(Nc2ncc3c(n2)-c2ccc(Cl)cc2C(c2c(F)cccc2OC)=NC3)ccc1C(=O)O [MLN8237] | disrupt the Aurora-A/N-Myc complex
